Laboratory results taken from patent US11771662B2, “Analgesic formulation for control of pain in dogs” (Kansas State University Research Foundation, priority 2017, dated 2023).
Where two headings read alike, the source gives them in different places.

Columns and labels:
[1] = Plasma methadone, fluconazole, naltrexone and naltrexone metabolite concentrations (Example IV)
Text: Anesthesia was monitored by licensed veterinary technicians.

healthy Beagle dogs = test: Rectal temperature as marker of central opioid effects, methadone/fluconazole with or without naltrexone (Example II); assay type: in vivo, dog; details: naltrexone 0.25 mg/kg PO added to methadone 1 mg/kg and fluconazole 5 mg/kg PO
Text: (§1) Twelve healthy Beagle dogs were divided into two groups of 6 each in a parallel study design. […] Rectal temperature was monitored as a marker of central opioid effects throughout the study.

[2] = Plasma methadone, naltrexone and naltrexone metabolites, multiple oral doses (Example III); assay type: in vivo, dog; details: multiple oral doses of methadone/fluconazole/naltrexone formulation
Text: Twelve healthy Beagle dogs were divided into two groups of 6 each in a parallel study design. […] Group 1 simulated a patient dropped off the night before surgery, while Group 2 simulated a patient dropped off in the morning for same day early afternoon surgery. Rectal temperature was monitored as a marker of central opioid effects throughout the study and von Frey thresholds were obtained to assess the antinociceptive effects.

[3] = group administered naltrexone 0.25 mg/kg PO with methadone and fluconazole
Text: as §1

## Oc1ccc2c3c1O[C@H]1[C@H](O)CC[C@@]4(O)[C@@H](C2)N(CC2CC2)CC[C@]314 [β-naltrexol]
[1]; oral methadone groups
  Highest measured plasma concentration: 1.7 ng/mL

## O=C1CC[C@@]2(O)[C@H]3Cc4ccc(O)c5c4[C@@]2(CCN3CC2CC2)[C@H]1O5 [naltrexone]
Healthy Beagle dogs
  Effect of addition of naltrexone on central opioid effects of methadone with fluconazole: did not affect the central opioid effects
[2]
  Plasma detection of analyte relative to LOQ of the assay (1 ng/mL): rarely detected above the LOQ
[3]
  Plasma detection of analyte relative to LOQ of the assay (1 ng/mL): rarely detected above the LOQ
[1]; any group
  Plasma detection of analyte: not detected in any plasma sample from any group

## O=C(O)[C@H]1O[C@@H](Oc2ccc3c4c2O[C@H]2C(=O)CC[C@@]5(O)[C@@H](C3)N(CC3CC3)CC[C@]425)[C@H](O)[C@@H](O)[C@@H]1O [naltrexone glucuronide]
[2]
  Plasma detection of analyte: detected in both groups
[3]
  Plasma detection of analyte: detected
[1]; oral methadone groups
  Plasma detection of analyte: measured in most of the samples
